How the values were obtained:
[1] = biological target: T1, human CRTH2 (Homo sapiens, UniProt Q9Y5Y4); assay: Human CRTH2 Receptor Binding Assay (whole cell, [3H]ramatroban competition); conditions: CHO-K1 cells expressing human CRTH2 and G-alpha16; 20 nM [3H]ramatroban; 1 hour, room temperature
T1 construct: expressed in transfected cells
T1 sequence (Q9Y5Y4 1-395): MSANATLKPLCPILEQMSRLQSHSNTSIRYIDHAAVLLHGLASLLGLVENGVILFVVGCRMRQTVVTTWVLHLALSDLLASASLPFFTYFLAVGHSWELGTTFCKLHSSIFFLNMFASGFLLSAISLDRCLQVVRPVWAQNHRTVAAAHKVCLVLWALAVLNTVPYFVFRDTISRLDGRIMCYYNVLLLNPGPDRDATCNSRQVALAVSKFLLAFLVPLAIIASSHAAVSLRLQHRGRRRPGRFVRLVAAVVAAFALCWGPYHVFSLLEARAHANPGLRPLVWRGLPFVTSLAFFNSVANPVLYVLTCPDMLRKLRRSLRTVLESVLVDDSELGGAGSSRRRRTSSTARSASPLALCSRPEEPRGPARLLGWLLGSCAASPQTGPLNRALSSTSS
Excerpt: A whole cell receptor binding assay using [^3H]ramatroban as the competing radioactive ligand was employed to evaluate the compound binding activity to human CRTH2. The radioactive ligand [^3H]ramatroban was synthesized according to Sugimoto et. al. (Eur. J. Pharmacol. 524, 30-37, 2005) to a specific activity of 42 Ci/mmol.
A cell line stably expressing human CRTH2 was established by transfecting CHO-K1 cells with two mammalian expression vectors that harbored human CRTH2 and G-alpha16 cDNAs, respectively, using FuGene® 6 transfection reagent (from Roche). Stable clones expressing CRTH2 were selected by staining each clone with BM16 (BD Pharmingen™ from BD Biosciences, a division of Becton, Dickinson and Company), which is a rat monoclonal antibody to human CRTH2. The cells were maintained as monolayer cultures in Ham's F-12 medium containing 10% fetal bovine serum, 100 units/mL penicillin, […] streptomycin, 2 mM glutamine, 0.5 mg/mL G418 (geneticin) for CRTH2, and 0.2 mg/mL hygromycin-B (for G-alpha 16). For whole cell receptor binding assay, the monolayer cells were rinsed once with PBS (phosphate buffered saline), dissociated using diammonium ethylenediaminetetraacetate (Versene™ EDTA from the Dow Chemical Company), and suspended in PBS containing 10 mM MgCl2 and 0.06% BSA (bovine serum albumin) at 1.5×10^6 cells/mL.
The binding reactions (0.2 mL) were performed in 96-well plates at room temperature in PBS containing 1.5×10^5 cells, 10 mM MgCl2, 0.06% BSA, 20 nM [^3H]ramatroban, and test compound at various concentrations. After 1 hour of binding reactions, the cells were harvested on GF™/B filter microplates (microtiter plates with embedded glass fiber from PerkinElmer, Inc.) and washed 5 times with PBS using a Filtermate™ Harvester (a cell harvester that harvests and washes cells from microplates from PerkinElmer, Inc.). The radioactivities bound to the cells were determined using a microplate scintillation counter (TopCount® NXT, from PerkinElmer, Inc.) after adding 50 μL of Microscint™ 20 scintillation fluid (from PerkinElmer, Inc.) to each well of the filter plates. The radioactivity from non-specific binding was determined by replacing compound with 10 μM of 15(R)-15-methyl PGD2 (from Cayman Chemical Company) in the reaction mixtures. The radioactivity bound to the cells in the absence of compound (total binding) was determined by replacing compound with 0.25% of DMSO (dimethyl sulfoxide) in the reaction mixture. Specific binding data were obtained by subtracting the radioactivity of non-specific binding from each binding data.
The IC50 value is defined as the concentration of the tested compound that is required for 50% inhibition of total specific binding. In order to calculate the IC50 value, the percent inhibition data were determined for 7 concentrations for each compound. The percent inhibition for a compound at each concentration was calculated according to the following formula, [1-(specific binding in the presence of compound)/(total specific binding)]×100. The IC50 value was then obtained by fitting the percent inhibition data to a sigmoidal dose-response (4 parameter logistic) model in the XLfit® software Excel add-in program [from ID Business Solutions Ltd., model 205, where F(x)=(A+(B−A)/(1+((C/x)^D)))].

[2] = tested on: DK-PGD2-induced IL-13 production in T helper type 2 (Th2) cells; assay: DK-PGD2-Induced IL-13 Production Assay in Th2 Cells; format: cell-based; conditions: human Th2 cells, 500 nM DK-PGD2, 4 hrs at 37° C., ELISA; unit inferred; read-out: IC50 of inhibiting IL-13 production (values greater than 10)
Experimental: Inhibition of 13,14-dihydro-15-keto Prostaglandin D2 (DK-PGD2)-induced IL-13 production in T helper type 2 (Th2) cells was applied to evaluate compound cellular potency.
Cultures of Th2 cells were established from blood of healthy human volunteers according to the following procedure. Peripheral blood mononuclear cells (PBMC) were first isolated from 50 mL of fresh blood by Ficoll-Hypaque density gradient centrifugation, followed by CD4^+ cell purification using a CD4^+ T Cell Isolation Kit II (from Miltenyi Biotec Inc.). The CD4^+ T cells were then differentiated to Th2 cells by culturing the cells in X-VIVO 15® medium (from Cambrex BioScience Walkersville Inc.) containing 10% human AB serum (serum of blood type AB from Invitrogen Corporation), 50 U/mL of recombinant human interleukin-2 (rhIL-2) (from PeproTech Inc.) and 100 ng/mL of recombinant human interleukin-4 (rhIL-4) (from PeproTech Inc.) for 7 days. The Th2 cells were isolated using a CD294 (CRTH2) MicroBead Kit (from Miltenyi Biotec Inc.) and amplified in X-VIVO 15® medium containing 10% human AB serum and 50 U/mL of rhIL-2 for 2 to 5 weeks. In general, 70% to 80% of the Th2 cells used in the assay are CRTH2-positive when analyzed by fluorescence-activated cell sorting using the BM16 antibody (as previously described) conjugated to phycoerythrin (PE).
The spontaneous production of IL-13 by Th2 cells was determined in the absence of DK-PGD2 stimulation and the value was subtracted from that in the presence of each compound for percent inhibition and IC50 calculations.
The percent inhibition of interleukin 13 (IL-13) production for a compound at various concentrations was calculated according to the following formula, [1-(IL-13 production in the presence of compound)/(IL-13 production in the presence of 0.15% DMSO)]×100. The IC50 value, defined as the concentration of a compound that is required for 50% inhibition of IL-13 production, was calculated by fitting the percent inhibition data for 7 concentrations to a sigmoidal dose-response (4 parameter logistic) model in the XLfit® software Excel add-in program [ID Business Solutions Ltd., model 205, where F(x)=(A+(B−A)/(1+((C/x)^D)))].

SMILES	IC50 [1]	IC50 [2]
CC(C)c1ccc2c(c1OCC(=O)O)CCCC2NS(=O)(=O)c1cc(C(F)(F)F)cc(C(F)(F)F)c1 (stereo not shown) [Example 1-2, [5-(3,5-Bis-trifluoromethyl-benzenesulfonyl-amino)-2-isopropyl-5,6,7,8-tetrahydro-naphthalen-1-yloxy]-acetic acid]	195 nM	> 10000 nM
Cc1ccc2c(c1OCC(=O)O)CCCC2N(C)S(=O)(=O)c1cc(C(F)(F)F)cc(C(F)(F)F)c1 (stereo not shown) [Example 2-2, {5-[(3,5-Bis-trifluoromethyl-benzenesulfonyl)-methyl-amino]-2-methyl-5,6,7,8-tetrahydro-naphthalen-1-yloxy}-acetic acid]	311 nM	> 10000 nM
CCc1ccc2c(c1OCC(=O)O)CCCC2N(C)S(=O)(=O)c1cc(C(F)(F)F)cc(C(F)(F)F)c1 (stereo not shown) [Example 2-3, {5-[(3,5-Bis-trifluoromethyl-benzenesulfonyl)-methyl-amino]-2-ethyl-5,6,7,8-tetrahydro-naphthalen-1-yloxy}-acetic acid]	177 nM	> 10000 nM
CN(C1CCCc2c1cc(Cl)c(F)c2OCC(=O)O)S(=O)(=O)c1cc(Cl)ccc1Cl (stereo not shown) [Example 2-9, {3-Chloro-5-[(2,5-dichloro-benzenesulfonyl)-methyl-amino]-2-fluoro-5,6,7,8-tetrahydro-naphthalen-1-yloxy}-acetic acid]	1160 nM	–
CN(C1CCCc2c(OCC(=O)O)cc(Cl)cc21)S(=O)(=O)c1cc(Cl)ccc1Cl (stereo not shown) [Example 2-10, {3-Chloro-5-[(2,5-dichloro-benzenesulfonyl)-methyl-amino]-5,6,7,8-tetrahydro-naphthalen-1-yloxy}-acetic acid]	859 nM	–
CN(C1CCCc2c1cc(Cl)c(F)c2OCC(=O)O)S(=O)(=O)c1ccc(Cl)cc1Cl (stereo not shown) [Example 2-11, {3-Chloro-5-[(2,4-dichloro-benzenesulfonyl)-methyl-amino]-2-fluoro-5,6,7,8-tetrahydro-naphthalen-1-yloxy}-acetic acid]	536 nM	> 10000 nM
CN(C1CCCc2c1cc(Cl)c(F)c2OCC(=O)O)S(=O)(=O)c1cc(Br)cc(C(F)(F)F)c1 (stereo not shown) [Example 2-12, {5-[(3-Bromo-5-trifluoromethyl-benzenesulfonyl)-methyl-amino]-3-chloro-2-fluoro-5,6,7,8-tetrahydro-naphthalen-1-yloxy}-acetic acid]	12.3 nM	–
CN(C1CCCc2c(OCC(=O)O)cc(Cl)cc21)S(=O)(=O)c1cc(Br)cc(C(F)(F)F)c1 (stereo not shown) [Example 2-13, {5-[(3-Bromo-5-trifluoromethyl-benzenesulfonyl)-methyl-amino]-3-chloro-5,6,7,8-tetrahydro-naphthalen-1-yloxy}-acetic acid]	6.2 nM	–
CN(C1CCCc2c(OCC(=O)O)cc(Cl)cc21)S(=O)(=O)c1cc(F)cc(C(F)(F)F)c1 (stereo not shown) [Example 2-14, {3-Chloro-5-[(3-fluoro-5-trifluoromethyl-benzenesulfonyl)-methyl-amino]-5,6,7,8-tetrahydro-naphthalen-1-yloxy}-acetic acid]	11.2 nM	–
CN(C1CCCc2c1cc(Cl)c(F)c2OCC(=O)O)S(=O)(=O)c1cc(F)cc(C(F)(F)F)c1 (stereo not shown) [Example 2-15, {3-Chloro-2-fluoro-5-[(3-fluoro-5-trifluoromethyl-benzenesulfonyl)-methyl-amino]-5,6,7,8-tetrahydro-naphthalen-1-yloxy}-acetic acid]	14.1 nM	–
CN(C1CCCc2c1ccc(F)c2OCC(=O)O)S(=O)(=O)c1cc(C(F)(F)F)cc(C(F)(F)F)c1 (stereo not shown) [Example 2-17]	199 nM	–
CN(C1CCCc2c1cc(F)c(F)c2OCC(=O)O)S(=O)(=O)c1ccc(Cl)cc1Cl (stereo not shown) [Example 2-18, {5-[(2,4-Dichloro-benzenesulfonyl)-methyl-amino]-2,3-difluoro-5,6,7,8-tetrahydro-naphthalen-1-yloxy}-acetic acid]	2520 nM	–
CN(C1CCCc2c(OCC(=O)O)cc(F)cc21)S(=O)(=O)c1cc(Cl)ccc1Cl (stereo not shown) [Example 2-19, {55-[(2,5-Dichloro-benzenesulfonyl)-methyl-amino]-3-fluoro-5,6,7,8-tetrahydro-naphthalen-1-yloxy}-acetic acid]	2640 nM	–
CN(C1CCCc2c1cc(F)c(F)c2OCC(=O)O)S(=O)(=O)c1cc(Br)cc(C(F)(F)F)c1 (stereo not shown) [Example 2-20, {5-[(3-Bromo-5-trifluoromethyl-benzenesulfonyl)-methyl-amino]-2,3-difluoro-5,6,7,8-tetrahydro-naphthalen-1-yloxy}-acetic acid]	288 nM	–
CN(C1CCCc2c1cc(F)c(F)c2OCC(=O)O)S(=O)(=O)c1cc(Cl)ccc1Cl (stereo not shown) [Example 2-21, {5-[(2,5-Dichloro-benzenesulfonyl)-methyl-amino]-2,3-difluoro-5,6,7,8-tetrahydro-naphthalen-1-yloxy}-acetic acid]	2100 nM	–
CN(C1CCCc2c(OCC(=O)O)cc(F)cc21)S(=O)(=O)c1cc(Br)cc(C(F)(F)F)c1 (stereo not shown) [Example 2-22, {5-[(3-Bromo-5-trifluoromethyl-benzenesulfonyl)-methyl-amino]-3-fluoro-5,6,7,8-tetrahydro-naphthalen-1-yloxy}-acetic acid]	5.4 nM	–
CN(C1CCCc2c(OCC(=O)O)cc(F)cc21)S(=O)(=O)c1cc(F)cc(C(F)(F)F)c1 (stereo not shown) [Example 2-23, {3-Fluoro-5-[(3-fluoro-5-trifluoromethyl-benzenesulfonyl)-methyl-amino]-5,6,7,8-tetrahydro-naphthalen-1-yloxy}-acetic acid]	198 nM	–
CN(C1CCCc2c1cc(F)c(F)c2OCC(=O)O)S(=O)(=O)c1cc(F)cc(C(F)(F)F)c1 (stereo not shown) [Example 2-24, {2,3-Difluoro-5-[(3-fluoro-5-trifluoromethyl-benzenesulfonyl)-methyl-amino]-5,6,7,8-tetrahydro-naphthalen-1-yloxy}-acetic acid]	380 nM	–
